Experimental data as given in US4201866A, “O-Hemi-succinate of propranolol” (American Home Products Corporation, priority 1977, dated 1980).
“And” between values parts separate entries of the source, which are not always exact repeats. Equal entries are not always repeated. Structures can show the parent of a compound that is named as a salt. Where two headings read alike, the source gives them in different places.

What was measured:
Type in all cases: in vivo, beagle dogs
[1] = Intravenous propranolol-o-hemi-succinate hydrochloride; plasma levels of unchanged ester and free propranolol (Example 5)
Method: (§1) Four beagle dogs were administered propranolol-o-hemi-succinate hydrochloride either intravenously or orally. The dogs were divided into two groups of two, each group receiving each dosing regimen according to a crossover design. The oral doses consisted of 107 mg of propranolol-o-hemi-succinate hydrochloride (equivalent to 80 mg propranolol HCl) and the intravenous doses consisted of 26.7 mg of propranolol-o-hemi-succinate hydrochloride (equivalent to 20 mg propranolol HCl). Blood samples were collected at regular intervals after dosing and plasma was analyzed for free propranolol and unchanged propranolol-o-hemi-succinate hydrochloride.
(§2) Plasma was analyzed for propranolol-o-hemi-succinate hydrochloride by a TLC fluorometric procedure. Two ml samples were mixed with 2 ml of pH 4 buffer and extracted with 40 ml of methylene chloride. A 30 ml aliquot from the organic phase was evaporated to dryness and the residue was dissolved in 100 μl of ethanol. Twenty-five μl aliquots were spotted on TLC plates of silica gel along with standard solutions of propranolol-o-hemi-succinate hydrochloride. The plates were developed in saturated tank containing the solvent system: isopropyl alcohol (55 ml), benzene (40 ml), water (5 ml), formic acid (3 ml). After developement, the plates were dried and sprayed with a 50% solution of propylene glycol in water. They were read in the fluorescence mode of a Schoeffel spectrodensitometer. The limit of reliable quantitation was 25 ng per ml of plasma.

[2] = Oral propranolol-o-hemi-succinate hydrochloride; plasma levels of unchanged ester and free propranolol (Example 5)
Method: as §1, §2

[3] = Intravenous administration of propranolol HCl and propranolol-o-hemi-succinate HCl; plasma levels of free propranolol (Example 3)
Method: (§3) Plasma was analyzed for free propranolol by a TLC fluorometric procedure. Two ml samples were mixed with 2 ml of pH 10 buffer and extracted with 25 ml of ethyl ether. A 20 ml aliquot from the ether phase was evaporated to dryness and the dry residue was dissolved in 100 μl of ethanol. Twenty-five μl aliquots were spotted on TLC plates of silica gel along with standard solutions of propranolol. The plates were developed in a saturated tank containing the solvent system methanol (100 ml): concentrated NH4 OH (0.4 ml). After development, the plates were dried and sprayed with a 50% solution of propylene glycol in water. They were then read in the fluorescence mode of a Schoeffel spectrodensitometer. The limit of reliable quantitation was 2 ng. of propranolol per ml of plasma.
In this experiment, the same four dogs used in Example 2 were administered a 20 mg intravenous dose of propranolol HCl on one experimental day and an equivalent dose of the o-hemi-succinate on a second day. A period of one week elapsed between each administration. Blood samples were collected and analyzed as above.

[4] = Oral administration of a reduced dose of propranolol-o-hemi-succinate hydrochloride; plasma levels of free propranolol (Example 4)
Method: Two beagle dogs were given an oral dose of 13.4 mg of propranolol-O-hemi-succinate hydrochloride (equivalent to 10 mg. propranolol HCl). Blood samples were obtained at regular intervals after drug administration and plasma analyzed for free propranolol. Plasma levels of free propranolol were compared to those obtained following administration of 80 mg dose of propranolol HCl.

[5] = Oral administration of propranolol-o-hemi-succinate HCl and propranolol HCl; plasma levels of free propranolol (Example 2)
Method: In this experiment, four beagle dogs were given an 80 mg. oral dose of propranolol HCl or an equivalent dose of the o-hemi-succinate. The animals were divided into two groups of two, each group receiving the drugs according to a crossover design. The crossover experiment was repeated twice. A period of at least one week elapsed between each dosing day. Blood samples were obtained at regular intervals after dosing a plasma was analyzed for free propranolol concentrations.
as §3

[6] = 80 mg propranolol HCl or equivalent

CC(C)NCC(COc1cccc2ccccc12)OC(=O)CCC(=O)O (stereo not drawn) [propranolol-o-hemi-succinate HCl, Butanedioic Acid Monol[[2-(1-Methylethyl] Amino] -1-[(1-Naphthalenyloxy) Methyl] Ethyl] Ester Hydrochloride]
Plasma level of unchanged propranolol-o-hemi-succinate HCl ([1]; 0 h, i.v. 26.7 mg, individual dogs, in ng/mL): 0
Plasma level of unchanged propranolol-o-hemi-succinate HCl ([1]; 1/2 hr, i.v. 26.7 mg, individual dogs, 30 min, Hydrochloride): 692 ng/mL and 1130 ng/mL and 811 ng/mL and 487 ng/mL
Plasma level of unchanged propranolol-o-hemi-succinate HCl ([1]; 5 min, i.v. 26.7 mg, individual dogs, Hydrochloride): 2770 ng/mL and 2540 ng/mL and 1430 ng/mL
Plasma level of unchanged propranolol-o-hemi-succinate HCl ([1]; 10 min, i.v. 26.7 mg, individual dogs, Hydrochloride): 1590 ng/mL and 2350 ng/mL and 1780 ng/mL and 946 ng/mL
Plasma level of unchanged propranolol-o-hemi-succinate HCl ([1]; 15 min, i.v. 26.7 mg, individual dogs, Hydrochloride): 1210 ng/mL and 1760 ng/mL and 1340 ng/mL and 819 ng/mL
Plasma level of unchanged propranolol-o-hemi-succinate HCl ([1]; 1 hr, i.v. 26.7 mg, individual dogs, Hydrochloride, 60 min): 366 ng/mL and 198 ng/mL
Plasma level of unchanged propranolol-o-hemi-succinate HCl ([1]; 2 hrs, i.v. 26.7 mg, individual dogs, Hydrochloride, 120 min): 91 ng/mL and 76 ng/mL and 132 ng/mL and 30 ng/mL
Plasma level of unchanged propranolol-o-hemi-succinate HCl ([1]; 4 hrs, i.v. 26.7 mg, individual dogs, * = estimate only, below level of reliable quantitation, Hydrochloride): Trace
Plasma level of unchanged propranolol-o-hemi-succinate HCl ([1]; 6 hrs, i.v. 26.7 mg, individual dogs): Trace
Mean plasma level of unchanged propranolol-o-hemi-succinate HCl ([1]; 6 hrs, i.v. 26.7 mg, mean): Trace
half-life of free propranolol ([1]; after i.v. succinate ester): two
half-life ([1]; dog, plasma, 26.7 mg, following intravenous dosing, read-out: t 1/2 of disappearance of propranolol-o-hemi-succinate hydrochloride): 30 min
concentration at 0.5 h ([1]; dog, plasma, iv, 26.7 mg, 1/2 hr, i.v. 26.7 mg, mean, read-out: Mean plasma level of unchanged propranolol-o-hemi-succinate HCl): 781 ng/mL
concentration at 5 min ([1]; dog, plasma, iv, 26.7 mg, 5 min, i.v. 26.7 mg, individual dogs, read-out: Plasma level of unchanged propranolol-o-hemi-succinate HCl): 2200 ng/mL
concentration at 5 min ([1]; dog, plasma, iv, 26.7 mg, 5 min, i.v. 26.7 mg, mean, read-out: Mean plasma level of unchanged propranolol-o-hemi-succinate HCl): 2240 ng/mL
concentration at 10 min ([1]; dog, plasma, iv, 26.7 mg, 10 min, i.v. 26.7 mg, mean, read-out: Mean plasma level of unchanged propranolol-o-hemi-succinate HCl): 1670 ng/mL
concentration at 0.25 h ([1]; dog, plasma, iv, 26.7 mg, 15 min, i.v. 26.7 mg, mean, read-out: Mean plasma level of unchanged propranolol-o-hemi-succinate HCl): 1280 ng/mL
concentration at 1 h ([1]; dog, plasma, iv, 26.7 mg, 1 hr, i.v. 26.7 mg, individual dogs, read-out: Plasma level of unchanged propranolol-o-hemi-succinate HCl): 287 ng/mL
concentration at 1 h ([1]; dog, plasma, iv, 26.7 mg, 1 hr, i.v. 26.7 mg, mean, read-out: Mean plasma level of unchanged propranolol-o-hemi-succinate HCl): 284 ng/mL
concentration at 2 h ([1]; dog, plasma, iv, 26.7 mg, 2 hrs, i.v. 26.7 mg, mean, read-out: Mean plasma level of unchanged propranolol-o-hemi-succinate HCl): 82 ng/mL
concentration at 4 h ([1]; dog, plasma, iv, 26.7 mg, 4 hrs, i.v. 26.7 mg, individual dogs, * = estimate only, below level of reliable quantitation, read-out: Plasma level of unchanged propranolol-o-hemi-succinate HCl): ~15 ng/mL
concentration at 4 h ([1]; dog, plasma, iv, 26.7 mg, 4 hrs, i.v. 26.7 mg, mean, * = estimate only, below level of reliable quantitation, read-out: Mean plasma level of unchanged propranolol-o-hemi-succinate HCl): ~4 ng/mL
AUC(0-t) at 6 h ([1]; dog, plasma, iv, 26.7 mg, i.v. 26.7 mg, mean, read-out: Mean AUC 0-6 hr of unchanged propranolol-o-hemi-succinate HCl): 1230 ng·h/mL
AUC 0-6 hr of unchanged propranolol-o-hemi-succinate HCl ([1]; i.v. 26.7 mg, individual dogs, Hydrochloride, 360 min): 1160 ng·h/mL and 1530 ng·h/mL and 1520 ng·h/mL and 711 ng·h/mL
Mean plasma level of unchanged propranolol-o-hemi-succinate HCl ([1]; i.v. 26.7 mg, mean): 0
ester left 4 hours after administration ([1]; i.v., 4 hours): virtually none
plasma levels of free propranolol 6 hours after administration of the succinate ester ([1]; i.v., 6 hours): significant plasma levels still existed
Plasma level of unchanged propranolol-o-hemi-succinate HCl ([2]; 0 h, oral 107 mg, individual dogs, in ng/mL): 0
Mean plasma level of unchanged propranolol-o-hemi-succinate HCl ([2]; 0 h, oral 107 mg, mean): 0
Plasma level of unchanged propranolol-o-hemi-succinate HCl ([2]; 1 hr, oral 107 mg, individual dogs, Hydrochloride, 60 min): 2950 ng/mL and 1900 ng/mL and 3240 ng/mL and 1320 ng/mL
Plasma level of unchanged propranolol-o-hemi-succinate HCl ([2]; 2 hrs, oral 107 mg, individual dogs, Hydrochloride, 120 min): 715 ng/mL and 390 ng/mL and 486 ng/mL and 268 ng/mL
Plasma level of unchanged propranolol-o-hemi-succinate HCl ([2]; 6 hrs, oral 107 mg, individual dogs, * = estimate only, below level of reliable quantitation, Hydrochloride): 0 ng/mL
Plasma level of unchanged propranolol-o-hemi-succinate HCl ([2]; 6 hrs, oral 107 mg, individual dogs, * = estimate only, below level of reliable quantitation, Hydrochloride, 360 min): 20 ng/mL and 13 ng/mL and 8 ng/mL
concentration at 0.5 h ([2]; dog, plasma, po, 107 mg, 1/2 hr, mean, read-out: Mean plasma level of unchanged propranolol-o-hemi-succinate HCl): 1760 ng/mL
concentration at 1 h ([2]; dog, plasma, po, 107 mg, 1 hr, mean, read-out: Mean plasma level of unchanged propranolol-o-hemi-succinate HCl): 2350 ng/mL
concentration at 2 h ([2]; dog, plasma, po, 107 mg, 2 hrs, mean, read-out: Mean plasma level of unchanged propranolol-o-hemi-succinate HCl): 465 ng/mL
concentration at 4 h ([2]; dog, plasma, po, 107 mg, 4 hrs, mean, read-out: Mean plasma level of unchanged propranolol-o-hemi-succinate HCl): 62 ng/mL
concentration at 6 h ([2]; dog, plasma, po, 107 mg, 6 hrs, mean, * = estimate only, below level of reliable quantitation, read-out: Mean plasma level of unchanged propranolol-o-hemi-succinate HCl): ~10 ng/mL
AUC(0-t) at 6 h ([2]; dog, plasma, po, 107 mg, mean, read-out: Mean AUC 0-6 Hrs. of unchanged propranolol-o-hemi-succinate HCl): 3470 ng·h/mL
AUC 0-6 Hrs. of unchanged propranolol-o-hemi-succinate HCl ([2]; oral 107 mg, individual dogs, Hydrochloride, 360 min): 3590 ng·h/mL and 3366 ng·h/mL and 4818 ng·h/mL and 2121 ng·h/mL
Plasma levels of free propranolol compared with propranolol i.v. ([3]; equivalent dose): lower
Conversion of the propranolol ester to propranolol ([3]; i.v.): very fast
levels of propranolol found 5 minutes after administration ([3]; i.v., 5 minutes): high levels
Plasma level of free propranolol ([4]; 6 hours after dosing, 80 mg propranolol HCl or 13.4 mg hemi-succinate HCl, individual dogs, Hydrochloride): Trace
levels of free propranolol at a dose 1/8 that of propranolol HCl ([4]; dogs, vs propranolol HCl, only two dogs): comparable levels
Absorption of the succinate and its conversion to propranolol [5]: rapid
plasma levels of free propranolol relative to equivalent dose of propranolol hydrochloride [5]: eight times higher
C.V. of overall mean AUC 0-6 hr [5, 6]: 41%
s.d. of overall mean AUC 0-6 hr [5, 6]: 445 ng·h/mL
Plasma level of propranolol following oral administration, compared with propranolol hydrochloride ([5]; equivalent dose): considerably higher
reduction of fluctuation in plasma levels following the pro-drug, as revealed by AUC values ([5]; vs propranolol hydrochloride): 35%
